Read-outs that look alike come from different tables or passages of the source.
Legend:
Assay type in all cases: binding
[1] = molecular target: broad panel of kinases (Homo sapiens, UniProt O43318); settings: TAK1; 1 μM
[2] = molecular target: broad panel of kinases (Homo sapiens, UniProt P08922); settings: ROS1; 1 μM
[3] = molecular target: broad panel of kinases (Homo sapiens, UniProt P42336, E542K); settings: PIK3CA(E542K); 1 μM
[4] = molecular target: broad panel of kinases (Homo sapiens, UniProt Q9HBY8); settings: SGK2; 1 μM
[5] = molecular target: broad panel of kinases (Homo sapiens, UniProt P15056, V600E); settings: BRAF(V600E); 1 μM
Chain of broad panel of kinases (Homo sapiens, UniProt P15056, V600E) (P15056 2-766 V600E limits assumed): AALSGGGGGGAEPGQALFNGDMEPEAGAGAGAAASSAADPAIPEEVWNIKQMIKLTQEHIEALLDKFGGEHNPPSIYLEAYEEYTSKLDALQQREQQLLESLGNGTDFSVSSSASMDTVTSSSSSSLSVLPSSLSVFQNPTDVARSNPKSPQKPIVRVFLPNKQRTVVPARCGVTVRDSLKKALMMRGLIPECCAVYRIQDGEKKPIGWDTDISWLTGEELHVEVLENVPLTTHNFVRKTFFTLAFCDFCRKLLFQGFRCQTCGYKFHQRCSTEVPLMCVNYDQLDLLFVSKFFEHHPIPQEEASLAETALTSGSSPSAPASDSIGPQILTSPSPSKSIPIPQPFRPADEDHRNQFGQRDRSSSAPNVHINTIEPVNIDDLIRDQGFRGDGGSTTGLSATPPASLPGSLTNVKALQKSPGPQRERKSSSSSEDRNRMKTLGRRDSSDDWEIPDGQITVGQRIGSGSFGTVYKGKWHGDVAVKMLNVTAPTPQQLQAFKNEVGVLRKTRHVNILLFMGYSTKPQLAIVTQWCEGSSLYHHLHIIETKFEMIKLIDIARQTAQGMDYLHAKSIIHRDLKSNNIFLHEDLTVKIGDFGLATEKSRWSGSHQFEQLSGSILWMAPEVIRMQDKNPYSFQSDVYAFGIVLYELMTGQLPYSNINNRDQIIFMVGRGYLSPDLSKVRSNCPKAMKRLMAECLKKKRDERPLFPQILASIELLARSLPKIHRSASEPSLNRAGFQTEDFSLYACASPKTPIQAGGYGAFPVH

[6] = molecular target: broad panel of kinases (Homo sapiens, UniProt P27448); settings: MARK3; 1 μM
[7] = molecular target: broad panel of kinases (Homo sapiens, UniProt Q86V86); settings: PIM3; 1 μM
[8] = molecular target: broad panel of kinases (Homo sapiens, UniProt P53671); settings: LIMK2; 1 μM
[9] = molecular target: broad panel of kinases (Homo sapiens, UniProt Q9Y2H9); settings: MAST1; 1 μM
[10] = molecular target: broad panel of kinases (Homo sapiens, UniProt Q04912); settings: MST1R; 1 μM
Chain of broad panel of kinases (Homo sapiens, UniProt Q04912) (Q04912 25-304 limits assumed): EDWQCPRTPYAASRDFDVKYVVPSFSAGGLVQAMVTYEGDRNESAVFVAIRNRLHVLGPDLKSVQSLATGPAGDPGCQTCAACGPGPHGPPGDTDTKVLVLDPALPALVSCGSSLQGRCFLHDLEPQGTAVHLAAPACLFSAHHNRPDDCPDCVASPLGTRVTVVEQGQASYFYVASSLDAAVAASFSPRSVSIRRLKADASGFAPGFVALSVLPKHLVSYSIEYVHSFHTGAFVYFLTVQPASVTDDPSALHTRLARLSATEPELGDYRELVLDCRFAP
Chain of broad panel of kinases (Homo sapiens, UniProt Q04912) (Q04912 310-1400 limits assumed): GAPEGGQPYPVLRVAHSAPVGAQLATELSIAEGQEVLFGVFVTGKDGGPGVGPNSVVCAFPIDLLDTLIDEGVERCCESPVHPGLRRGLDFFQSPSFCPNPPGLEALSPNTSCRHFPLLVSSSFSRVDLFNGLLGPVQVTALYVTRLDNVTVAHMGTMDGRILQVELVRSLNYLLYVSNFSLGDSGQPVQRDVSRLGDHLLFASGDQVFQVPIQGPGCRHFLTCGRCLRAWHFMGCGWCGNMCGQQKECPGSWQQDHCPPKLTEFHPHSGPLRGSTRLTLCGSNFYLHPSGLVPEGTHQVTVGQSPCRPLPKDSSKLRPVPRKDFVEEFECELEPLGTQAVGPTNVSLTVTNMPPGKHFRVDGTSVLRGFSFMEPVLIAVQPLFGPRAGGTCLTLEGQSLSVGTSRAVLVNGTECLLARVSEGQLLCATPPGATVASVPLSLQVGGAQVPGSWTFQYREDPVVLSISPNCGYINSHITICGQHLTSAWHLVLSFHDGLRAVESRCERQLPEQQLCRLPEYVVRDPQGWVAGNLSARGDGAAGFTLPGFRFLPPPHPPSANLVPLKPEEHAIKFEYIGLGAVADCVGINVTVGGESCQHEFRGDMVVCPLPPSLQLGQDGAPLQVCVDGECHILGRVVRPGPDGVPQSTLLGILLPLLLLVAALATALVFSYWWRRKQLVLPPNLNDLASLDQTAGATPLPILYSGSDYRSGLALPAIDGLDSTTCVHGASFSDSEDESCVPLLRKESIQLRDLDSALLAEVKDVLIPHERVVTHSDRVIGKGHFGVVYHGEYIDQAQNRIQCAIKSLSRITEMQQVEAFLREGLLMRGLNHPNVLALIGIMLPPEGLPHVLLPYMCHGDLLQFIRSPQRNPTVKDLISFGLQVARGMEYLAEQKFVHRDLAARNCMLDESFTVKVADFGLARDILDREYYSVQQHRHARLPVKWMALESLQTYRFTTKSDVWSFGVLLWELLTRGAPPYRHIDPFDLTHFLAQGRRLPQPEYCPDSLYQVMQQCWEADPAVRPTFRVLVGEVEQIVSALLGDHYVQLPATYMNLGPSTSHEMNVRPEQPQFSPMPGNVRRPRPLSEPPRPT

[11] = molecular target: broad panel of kinases (Homo sapiens, UniProt P68400); settings: CSNK2A1; 1 μM
[12] = molecular target: broad panel of kinases (Homo sapiens, UniProt P23458); settings: 1 μM
[13] = molecular target: broad panel of kinases (Homo sapiens, UniProt Q00526); settings: CDK3; 1 μM
[14] = molecular target: broad panel of kinases (Homo sapiens, UniProt P51812); settings: 1 μM
[15] = molecular target: broad panel of kinases (Homo sapiens, UniProt P04049); settings: RAF1; 1 μM
[16] = molecular target: broad panel of kinases (Homo sapiens, UniProt P36888, D835H); settings: FLT3(D835H); 1 μM
[17] = molecular target: broad panel of kinases (Homo sapiens, UniProt P07949); settings: RET; 1 μM
[18] = molecular target: broad panel of kinases (Homo sapiens, UniProt P00519, H396P); settings: 1 μM
[19] = molecular target: broad panel of kinases (Homo sapiens, UniProt P11309); settings: P1M1 (PIM1); 1 μM
[20] = molecular target: broad panel of kinases (Homo sapiens, UniProt Q7KZI7); settings: MARK2; 1 μM
[21] = molecular target: broad panel of kinases (Homo sapiens, UniProt Q05655); settings: PRKCD; 1 μM
[22] = molecular target: broad panel of kinases (Homo sapiens, UniProt Q5S007, G2019S); settings: LRRK2(G2019S); 1 μM
[23] = molecular target: broad panel of kinases (Homo sapiens, UniProt Q6ZWH5); settings: NEK10; 1 μM
[24] = molecular target: broad panel of kinases (Homo sapiens, UniProt P54753); settings: EPHB3; 1 μM
[25] = molecular target: broad panel of kinases (Homo sapiens, UniProt Q8IWQ3); settings: BRSK2; 1 μM
[26] = molecular target: broad panel of kinases (Homo sapiens, UniProt Q9HC98); settings: NEK6; 1 μM
[27] = molecular target: broad panel of kinases (Homo sapiens, UniProt P42336, E545A); settings: PIK3CA(E545A); 1 μM
[28] = molecular target: broad panel of kinases (Homo sapiens, UniProt Q9UM73); settings: ALK; 1 μM
Chain of broad panel of kinases (Homo sapiens, UniProt Q9UM73) (Q9UM73 19-1620 limits assumed): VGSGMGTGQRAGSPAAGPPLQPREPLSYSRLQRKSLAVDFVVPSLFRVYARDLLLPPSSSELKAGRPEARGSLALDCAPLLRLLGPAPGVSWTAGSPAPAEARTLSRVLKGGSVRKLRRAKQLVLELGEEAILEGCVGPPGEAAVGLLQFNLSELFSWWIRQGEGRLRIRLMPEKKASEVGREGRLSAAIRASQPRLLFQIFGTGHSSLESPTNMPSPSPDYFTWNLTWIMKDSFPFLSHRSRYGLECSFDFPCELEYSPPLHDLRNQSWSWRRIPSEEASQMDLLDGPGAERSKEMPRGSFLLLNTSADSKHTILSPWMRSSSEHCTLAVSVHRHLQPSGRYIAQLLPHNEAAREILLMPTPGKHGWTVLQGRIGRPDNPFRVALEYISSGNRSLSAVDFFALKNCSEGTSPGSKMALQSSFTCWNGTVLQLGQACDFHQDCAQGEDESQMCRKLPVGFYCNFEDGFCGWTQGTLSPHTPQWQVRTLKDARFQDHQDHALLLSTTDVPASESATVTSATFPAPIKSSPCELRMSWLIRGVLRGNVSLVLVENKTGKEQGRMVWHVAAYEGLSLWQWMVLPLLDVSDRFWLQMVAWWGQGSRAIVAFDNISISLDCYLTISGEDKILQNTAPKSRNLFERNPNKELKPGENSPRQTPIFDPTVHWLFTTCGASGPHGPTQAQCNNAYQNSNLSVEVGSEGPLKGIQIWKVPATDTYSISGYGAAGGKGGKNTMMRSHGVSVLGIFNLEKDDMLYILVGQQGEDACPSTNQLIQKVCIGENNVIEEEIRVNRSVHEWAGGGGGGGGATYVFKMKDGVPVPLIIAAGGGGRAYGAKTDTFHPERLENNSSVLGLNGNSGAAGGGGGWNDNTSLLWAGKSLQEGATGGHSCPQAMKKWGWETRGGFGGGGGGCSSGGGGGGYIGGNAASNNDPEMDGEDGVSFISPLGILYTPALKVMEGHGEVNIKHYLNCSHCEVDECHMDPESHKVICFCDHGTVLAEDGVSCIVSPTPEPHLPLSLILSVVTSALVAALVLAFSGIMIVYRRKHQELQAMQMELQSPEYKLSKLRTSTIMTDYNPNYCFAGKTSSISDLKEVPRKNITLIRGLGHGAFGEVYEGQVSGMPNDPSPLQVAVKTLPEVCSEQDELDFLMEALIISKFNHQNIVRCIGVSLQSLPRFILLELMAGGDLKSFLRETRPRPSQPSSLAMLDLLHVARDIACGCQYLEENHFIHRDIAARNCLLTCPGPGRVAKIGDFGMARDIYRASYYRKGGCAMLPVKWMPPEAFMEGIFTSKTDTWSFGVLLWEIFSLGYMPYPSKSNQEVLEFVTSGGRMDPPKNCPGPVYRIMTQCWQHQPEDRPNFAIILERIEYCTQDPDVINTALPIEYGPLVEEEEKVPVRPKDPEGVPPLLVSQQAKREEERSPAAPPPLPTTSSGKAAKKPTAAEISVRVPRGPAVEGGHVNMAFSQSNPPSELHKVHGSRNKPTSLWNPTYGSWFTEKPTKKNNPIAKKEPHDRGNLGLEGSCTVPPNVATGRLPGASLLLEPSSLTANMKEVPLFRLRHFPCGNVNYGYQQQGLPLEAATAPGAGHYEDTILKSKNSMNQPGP

[29] = molecular target: broad panel of kinases (Homo sapiens, UniProt Q9Y6M4); settings: CSNK1G3; 1 μM
[30] = molecular target: broad panel of kinases (Homo sapiens, UniProt Q92630); settings: DYRK2; 1 μM
[31] = molecular target: broad panel of kinases (Homo sapiens, UniProt Q8WXR4); settings: MYO3B; 1 μM
[32] = molecular target: broad panel of kinases (Homo sapiens, UniProt P14616); settings: INSRR; 1 μM
Chain of broad panel of kinases (Homo sapiens, UniProt P14616) (P14616 27-742 limits assumed): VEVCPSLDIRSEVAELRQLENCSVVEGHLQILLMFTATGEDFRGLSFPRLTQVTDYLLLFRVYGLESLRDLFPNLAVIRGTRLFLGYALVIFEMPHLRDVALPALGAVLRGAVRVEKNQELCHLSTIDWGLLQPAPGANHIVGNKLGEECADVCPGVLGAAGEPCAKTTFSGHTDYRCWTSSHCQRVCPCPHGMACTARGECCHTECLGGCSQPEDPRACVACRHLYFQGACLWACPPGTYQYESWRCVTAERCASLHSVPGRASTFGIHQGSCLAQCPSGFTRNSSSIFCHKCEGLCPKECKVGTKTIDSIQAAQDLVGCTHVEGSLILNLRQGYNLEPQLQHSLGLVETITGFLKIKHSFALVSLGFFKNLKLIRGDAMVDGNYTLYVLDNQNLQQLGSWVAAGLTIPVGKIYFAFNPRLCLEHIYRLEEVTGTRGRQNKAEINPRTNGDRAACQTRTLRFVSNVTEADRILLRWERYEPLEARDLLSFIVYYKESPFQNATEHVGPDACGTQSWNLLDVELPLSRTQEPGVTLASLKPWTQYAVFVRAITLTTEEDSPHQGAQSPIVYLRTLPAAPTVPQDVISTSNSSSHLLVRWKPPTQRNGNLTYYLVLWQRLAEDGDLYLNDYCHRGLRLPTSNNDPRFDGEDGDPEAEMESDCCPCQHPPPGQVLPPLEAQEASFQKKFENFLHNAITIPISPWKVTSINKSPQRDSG
Chain of broad panel of kinases (Homo sapiens, UniProt P14616) (P14616 747-1297 limits assumed): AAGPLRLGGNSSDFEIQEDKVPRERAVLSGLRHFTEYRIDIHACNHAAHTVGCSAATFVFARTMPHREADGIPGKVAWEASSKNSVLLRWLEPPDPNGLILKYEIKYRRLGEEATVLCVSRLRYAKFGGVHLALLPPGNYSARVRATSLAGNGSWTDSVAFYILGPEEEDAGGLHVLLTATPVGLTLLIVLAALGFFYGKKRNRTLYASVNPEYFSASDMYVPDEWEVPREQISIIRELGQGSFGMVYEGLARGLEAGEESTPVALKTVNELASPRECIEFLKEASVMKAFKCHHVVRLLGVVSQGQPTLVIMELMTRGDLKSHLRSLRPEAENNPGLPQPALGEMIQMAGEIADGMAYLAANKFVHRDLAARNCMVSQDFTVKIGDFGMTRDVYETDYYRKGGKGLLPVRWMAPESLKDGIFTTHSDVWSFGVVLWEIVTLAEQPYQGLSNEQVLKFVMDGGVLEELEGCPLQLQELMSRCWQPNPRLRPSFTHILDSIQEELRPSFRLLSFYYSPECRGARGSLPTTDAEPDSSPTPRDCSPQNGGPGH

[33] = molecular target: broad panel of kinases (Homo sapiens, UniProt Q5VT25); settings: MRCKA; 1 μM
[34] = molecular target: broad panel of kinases (Homo sapiens, UniProt Q14004); settings: CDC2L5; 1 μM
[35] = molecular target: broad panel of kinases (Homo sapiens, UniProt Q9HBH9); settings: MKNK2; 1 μM
[36] = molecular target: broad panel of kinases (Homo sapiens, UniProt Q9H2K8); settings: TAOK3; 1 μM

SMILES | percent of control binding remaining (lower = stronger binding) [1] | percent of control binding remaining (lower = stronger binding) [2] | percent of control binding remaining (lower = stronger binding) [3] | percent of control binding remaining (lower = stronger binding) [4] | percent of control binding remaining (lower = stronger binding) [5] | percent of control binding remaining (lower = stronger binding) [6] | percent of control binding remaining (lower = stronger binding) [7] | percent of control binding remaining (lower = stronger binding) [8] | percent of control binding remaining (lower = stronger binding) [9] | percent of control binding remaining (lower = stronger binding) [10] | percent of control binding remaining (lower = stronger binding) [11] | percent of control binding remaining (lower = stronger binding) ([12]; JAK1(JH1domain-catalytic)) | percent of control binding remaining (lower = stronger binding) ([12]; JAK1(JH2domain-pseudokinase)) | percent of control binding remaining (lower = stronger binding) [13] | percent of control binding remaining (lower = stronger binding) ([14]; RSK2(Kin.Dom.1-N-terminal)) | percent of control binding remaining (lower = stronger binding) ([14]; RSK2(Kin.Dom.2-C-terminal)) | percent of control binding remaining (lower = stronger binding) [15] | percent of control binding remaining (lower = stronger binding) [16] | percent of control binding remaining (lower = stronger binding) [17] | percent of control binding remaining (lower = stronger binding) [19] | also measured
C=CC(=O)N1CC[C@H](Nc2nc(CN3CCOCC3)cc(Nc3ncc(C(=O)Nc4c(C)cccc4C)s3)n2)C1 [Example I-2] | 95% | 97% | 92% | 72% | 1.6% | 94% | 97% | 51% | 98% | 99% | 90% | 100% | 100% | 73% | 95% | 100% | 26% | 100% | 100% | 97% | percent of control binding remaining (lower = stronger binding) ([18]; ABL1(H396P)-nonphosphorylated): 0%; percent of control binding remaining (lower = stronger binding) ([18]; ABL1(H396P)-phosphorylated): 0%; percent of control binding remaining (lower = stronger binding) [20]: 100%; percent of control binding remaining (lower = stronger binding) [21]: 96%; percent of control binding remaining (lower = stronger binding) [22]: 100%; percent of control binding remaining (lower = stronger binding) [23]: 93%; percent of control binding remaining (lower = stronger binding) [24]: 0%; percent of control binding remaining (lower = stronger binding) [25]: 100%; percent of control binding remaining (lower = stronger binding) [26]: 100%; percent of control binding remaining (lower = stronger binding) [27]: 100%; percent of control binding remaining (lower = stronger binding) [28]: 97%; percent of control binding remaining (lower = stronger binding) [29]: 96%; percent of control binding remaining (lower = stronger binding) [30]: 88%; percent of control binding remaining (lower = stronger binding) [31]: 93%; percent of control binding remaining (lower = stronger binding) [32]: 96%; percent of control binding remaining (lower = stronger binding) [33]: 65%; percent of control binding remaining (lower = stronger binding) [34]: 100%; percent of control binding remaining (lower = stronger binding) [35]: 100%; percent of control binding remaining (lower = stronger binding) [36]: 81%
C=CC(=O)N1CC[C@H](Nc2nccc(Nc3ncc(C(=O)Nc4c(C)cccc4C)s3)n2)C1 [Example I-3] | 90% | 90% | 100% | 76% | 2.1% | 57% | 89% | 65% | 93% | 100% | 98% | 100% | 100% | 100% | 97% | 100% | 26% | 100% | 86% | 95% | % change compared to control ([18]; ABL1(H396P)-nonphosphorylated): 0.05%; % change compared to control ([18]; ABL1(H396P)-phosphorylated): 0%; percent of control binding remaining (lower = stronger binding) [20]: 80%; percent of control binding remaining (lower = stronger binding) [21]: 95%; percent of control binding remaining (lower = stronger binding) [22]: 99%; percent of control binding remaining (lower = stronger binding) [23]: 90%; percent of control binding remaining (lower = stronger binding) [24]: 0%; percent of control binding remaining (lower = stronger binding) [25]: 95%; percent of control binding remaining (lower = stronger binding) [26]: 64%; percent of control binding remaining (lower = stronger binding) [27]: 100%; percent of control binding remaining (lower = stronger binding) [28]: 83%; percent of control binding remaining (lower = stronger binding) [29]: 95%; percent of control binding remaining (lower = stronger binding) [30]: 74%; percent of control binding remaining (lower = stronger binding) [31]: 86%; percent of control binding remaining (lower = stronger binding) [32]: 100%; percent of control binding remaining (lower = stronger binding) [33]: 88%; percent of control binding remaining (lower = stronger binding) [34]: 100%; percent of control binding remaining (lower = stronger binding) [35]: 98%; percent of control binding remaining (lower = stronger binding) [36]: 91%
